Measurements reported in patent US7456165B2, “HCV NS5B inhibitors” (Bristol-Myers Squibb Company, priority 2006, dated 2008).

Legend:
HCV NS5B = target: T1, HCV NS5B (Hepatitis C virus genotype 1b, UniProt Q9WMX2); assay: HCV NS5B RdRp enzyme assay (preincubation protocol); type: biochemical; conditions: HCV NS5B RdRp genotype 1b
T1 construct: The protein was expressed with an 18 amino acid C-terminal truncation to enhance the solubility; made in house; host or cells: E. coli BL21(DE3)
In short: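 Preincubation format uses C-terminally truncated (Δ18) NS5B 1b from E. coli at 14 nM, added to compound before polyA template (0.2 nM), 3H-UTP (0.29 μM) and oligo-dT12 primer precaptured on SPA beads (20 nM). Buffer was 20 mM Hepes pH 7.5, 2% DMSO, run 4 h at 30° C. IC50 came from seven concentrations.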

HCV replicon cells = assay: HCV replicon FRET assay; type: cell-based; conditions: Hepatitis C virus
In short: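 Huh-7-derived HCV replicon cells (with or without Renilla luciferase reporter) incubated with titrated compound at 37° C. Lysed cells then read by NS3 cleavage of EDANS/DABCYL FRET peptide (20 μM, 340/490 nm, kinetic) or by Dual-Glo luciferase. EC50 is concentration giving 50% signal reduction after protease-inhibitor background subtraction; Alamar blue gives cytotoxicity.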

T1 sequence (Q9WMX2 2420-2992): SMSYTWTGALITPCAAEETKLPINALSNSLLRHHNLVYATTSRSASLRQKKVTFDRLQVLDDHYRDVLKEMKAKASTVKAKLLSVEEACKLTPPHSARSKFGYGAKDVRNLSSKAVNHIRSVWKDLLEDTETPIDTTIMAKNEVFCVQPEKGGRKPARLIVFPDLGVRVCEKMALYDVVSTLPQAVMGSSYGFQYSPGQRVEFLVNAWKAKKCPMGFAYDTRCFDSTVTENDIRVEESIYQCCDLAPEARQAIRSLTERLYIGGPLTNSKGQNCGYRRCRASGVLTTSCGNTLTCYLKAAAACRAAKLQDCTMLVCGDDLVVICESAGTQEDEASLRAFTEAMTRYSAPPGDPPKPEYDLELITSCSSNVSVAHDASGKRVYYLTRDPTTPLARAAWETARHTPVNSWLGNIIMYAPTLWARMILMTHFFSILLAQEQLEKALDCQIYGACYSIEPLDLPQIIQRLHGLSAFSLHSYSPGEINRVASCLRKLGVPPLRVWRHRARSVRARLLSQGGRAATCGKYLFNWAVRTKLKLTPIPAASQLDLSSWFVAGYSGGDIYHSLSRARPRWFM

Compound	IC50 (HCV NS5B) [nM]	EC50 (HCV replicon cells) [nM]
O=C(O)c1ccc2c(C3CCCCC3)c3n(c2c1)CC(c1nnc(CC2CCOCC2)o1)=Cc1ccccc1-3 [Example 44, 13-cyclohexyl-6-[5-[(tetrahydro-2H-pyran-4-yl)methyl]-1,3,4-oxadiazol-2-yl]-7H-indolo[2,1-a][2]benzazepine-10-carboxylic acid]	1 to 500	> 500
O=C(O)c1ccc2c(C3CCCCC3)c3n(c2c1)CC(c1ccoc1)=Cc1ccccc1-3 [Example 45, 13-Cyclohexyl-6-(furan-3-yl)-7H-indolo{2,1-a][2]benzazepine-10-carboxylic Acid]	1 to 500	> 500
COC(=O)CCc1cnc(C2=Cc3cc(OC)ccc3-c3c(C4CCCCC4)c4ccc(C(=O)OC)cc4n3C2)o1 [Example 46, Methyl 13-cyclohexyl-3-methoxy-6-(5-(3-methoxy-3-oxopropyl)-1,3-oxazol-2-yl)-7H-indolo[2,1-a][2]benzazepine-10-carboxylate]	> 500	> 500
COC(=O)c1ccc2c(C3CCCCC3)c3n(c2c1)CC(c1ncc(CCC(=O)O)o1)=Cc1cc(OC)ccc1-3 [Example 47, 3-(2-(13-Cyclohexyl-3-methoxy-10-(methoxycarbonyl)-7H-indolo[2,1-a][2]benzazepin-6-yl)-1,3-oxazol-5-yl)propanoic acid]	1 to 500	> 500
COC(=O)c1ccc2c(C3CCCCC3)c3n(c2c1)CC(c1ncc(CCC(=O)N2CCOCC2)o1)=Cc1cc(OC)ccc1-3 [Example 48, Methyl 13-cyclohexyl-3-methoxy-6-(5-(3-(4-morpholinyl)-3-oxopropyl)-1,3-oxazol-2-yl)-7H-indolo[2,1-a][2]benzazepine-10-carboxylate]	> 500	> 500
COc1ccc2c(c1)C=C(c1ncco1)Cn1c-2c(C2CCCCC2)c2ccc(C(=O)O)cc21 [Example 56, 13-Cyclohexyl-3-methoxy-6-(1,3-oxazol-2-yl)-7H-indolo[2,1-a][2]benzazepine-10-carboxylic acid]	1 to 500	> 500
COc1ccc2c(c1)C=C(c1ncco1)Cn1c-2c(C2CCCCC2)c2ccc(C(=O)NS(=O)(=O)N(C)C)cc21 [Example 57, 13-Cyclohexyl-N-((dimethylamino)sulfonyl)-3-methoxy-6-(1,3-oxazol-2-yl)-7H-indolo[2,1-a][2]benzazepine-10-carboxamide]	1 to 500	1 to 500
COc1ccc2c(c1)CC(c1ncco1)Cn1c-2c(C2CCCCC2)c2ccc(C(=O)NS(=O)(=O)N(C)C)cc21 (stereo not shown) [Example 58, 13-Cyclohexyl-N-((dimethylamino)sulfonyl)-3-methoxy-6-(1,3-oxazol-2-yl)-6,7-dihydro-5H-indolo[2,1-a][2]benzazepine-10-carboxamide]	1 to 500	1 to 500
